In ChEMBL document CHEMBL1201862, “PubChem BioAssay data set” (2004):
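Assay format: 96-well plates, 48-hour exposure. At the GI50, growth is halved.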 Calls of active or inactive are those of the source. No stated cut-off is given here; in the data, active = GI50 up to about 1.1 µM and inactive = higher. Residues, ends and D or L forms follow the SMILES beside them. Groups on a side chain read outwards from the residue. *: point of attachment. Cbz = O=C(OCc1ccccc1)*; Boc = CC(C)(C)OC(=O)*

How the values were obtained:
Test in all cases: NCI-60 cell line screen, 48 h
[1] = test system: ACHN
[2] = test system: MDA-MB-231
[3] = test system: NCI-H522
[4] = test system: IGROV-1
[5] = test system: HCT-15
[6] = test system: NCI-H460
[7] = test system: 786-0
[8] = test system: SNB-19
[9] = test system: OVCAR-4
[10] = test system: SF-268
[11] = test system: HT-29
[12] = test system: CCRF-CEM
[13] = test system: OVCAR-3
[14] = test system: UO-31
[15] = test system: RPMI-8226
[16] = test system: SK-OV-3
[17] = test system: RXF 393
[18] = test system: SF-539
[19] = test system: KM12

Compound | GI50 [1] | GI50 [2] | GI50 [3] | GI50 [4] | GI50 [5] [µM] | GI50 [6] | GI50 [7] | GI50 [8] | GI50 [9] | GI50 [10] | GI50 [11] | GI50 [12] | GI50 [13] | GI50 [14] | GI50 [15] | GI50 [16] | GI50 [17] | GI50 [18] | GI50 [19]
CC(C)(C)OC(=O)NC(CCCCNC(=O)CNC(=O)OCc1ccccc1)C(=O)NC(CCCCNC(=O)CNC(=O)OCc1ccccc1)C(=O)NC(CCCCNC(=O)CNC(=O)OCc1ccccc1)C(=O)NC(CCCCNC(=O)CNC(=O)OCc1ccccc1)C(=O)O (centres undefined) (Boc-K([Gly-Cbz])K([Gly-Cbz])K([Gly-Cbz])K([Gly-Cbz])-OH; configuration not given here) | > 100 µM (inactive) | > 100 µM (inactive) | > 100 µM (inactive) | > 100 µM (inactive) | > 100 | > 100 µM (inactive) | > 100 µM (inactive) | > 100 µM (inactive) | > 10 µM (inactive) | > 100 µM (inactive) | > 100 µM (inactive) | > 100 µM (inactive) | > 100 µM (inactive) | > 100 µM (inactive) | > 100 µM (inactive) |  |  |  | 
O=C1c2cccc(O)c2C(=O)c2c(O)cccc21 [DANTHRON] | > 100 µM (inactive) |  | 62.7 µM (inactive) | > 100 µM (inactive) | 74.8 | 30.3 µM (inactive) | > 100 µM (inactive) | > 100 µM (inactive) | 26.3 µM (inactive) | > 100 µM (inactive) | 35.8 µM (inactive) | > 100 µM (inactive) | 28.3 µM (inactive) | > 100 µM (inactive) | 50.7 µM (inactive) | > 100 µM (inactive) | 92.5 µM (inactive) | 53.6 µM (inactive) | > 100 µM (inactive)
COc1ccc(N2C(=O)/C(=C\c3cccc(Oc4ccccc4)c3)S(=O)(=O)C2c2ccccc2)cc1 (centres undefined) | 98.9 µM (inactive) | 85.1 µM (inactive) | 12.3 µM (inactive) |  | 21 | 36.7 µM (inactive) | 18.1 µM (inactive) | 47 µM (inactive) | 28.6 µM (inactive) |  |  | 73.6 µM (inactive) | 28.1 µM (inactive) | 53.6 µM (inactive) |  |  | 17.1 µM (inactive) |  | 22.5 µM (inactive)
CC1CCC(C(C)C)C(OC(=O)NCn2cc(-c3ccccc3)nn2)C1 (centres undefined) | > 100 µM (inactive) | > 100 µM (inactive) | > 100 µM (inactive) | > 100 µM (inactive) | > 100 | > 100 µM (inactive) | 41.2 µM (inactive) | 33.9 µM (inactive) | 57.8 µM (inactive) | 58.7 µM (inactive) | > 100 µM (inactive) | > 100 µM (inactive) |  |  | > 100 µM (inactive) |  |  | 48.3 µM (inactive) | > 100 µM (inactive)
[O-][n+]1c(-c2ccccc2)c2nc3ccccc3nc2c2ccccc21 | > 100 µM (inactive) |  | > 100 µM (inactive) | > 100 µM (inactive) | > 100 | > 100 µM (inactive) | > 100 µM (inactive) | > 100 µM (inactive) | 5 µM (inactive) | > 100 µM (inactive) | > 100 µM (inactive) | > 100 µM (inactive) | > 100 µM (inactive) | > 100 µM (inactive) | > 100 µM (inactive) | > 100 µM (inactive) | > 100 µM (inactive) | > 100 µM (inactive) | > 100 µM (inactive)
COc1ccc(CN2CC(C)(C)C2=O)c(OC)c1 | > 100 µM (inactive) |  | > 100 µM (inactive) | > 100 µM (inactive) | > 100 | > 100 µM (inactive) | > 100 µM (inactive) | > 100 µM (inactive) | > 100 µM (inactive) | > 100 µM (inactive) | > 100 µM (inactive) | > 100 µM (inactive) | > 100 µM (inactive) | > 100 µM (inactive) | > 100 µM (inactive) | > 100 µM (inactive) | > 100 µM (inactive) | > 100 µM (inactive) | > 100 µM (inactive)
CC(=O)CC(=O)ON(C)C(C)=O | > 100 µM (inactive) |  | > 100 µM (inactive) | > 100 µM (inactive) |  | > 100 µM (inactive) | > 100 µM (inactive) | > 100 µM (inactive) | 29.2 µM (inactive) | > 100 µM (inactive) | > 100 µM (inactive) | > 100 µM (inactive) | > 100 µM (inactive) | > 100 µM (inactive) | > 100 µM (inactive) | > 100 µM (inactive) | > 100 µM (inactive) | > 100 µM (inactive) | > 100 µM (inactive)
COc1ncnc2c1cnn2Cc1cn(COCC(O)CO)nn1 (centres undefined) | > 100 µM (inactive) | > 100 µM (inactive) | 10.8 µM (inactive) | > 100 µM (inactive) | > 100 |  | > 100 µM (inactive) | > 100 µM (inactive) | > 100 µM (inactive) | 16.3 µM (inactive) | > 100 µM (inactive) | > 100 µM (inactive) | > 100 µM (inactive) | > 100 µM (inactive) | > 100 µM (inactive) | > 100 µM (inactive) |  | > 100 µM (inactive) | > 100 µM (inactive)
O=C1OC(O)C(Oc2ccc(Cl)cc2)=C1Cl (centres undefined) | > 100 µM (inactive) |  | > 100 µM (inactive) | > 100 µM (inactive) | > 100 | > 100 µM (inactive) | > 100 µM (inactive) | > 100 µM (inactive) | > 100 µM (inactive) | > 100 µM (inactive) | > 100 µM (inactive) | > 100 µM (inactive) | > 100 µM (inactive) | > 100 µM (inactive) | > 100 µM (inactive) | > 100 µM (inactive) | > 100 µM (inactive) | > 100 µM (inactive) | > 100 µM (inactive)
Cc1nc2c(=S)n(C)ncc2[nH]1 | > 100 µM (inactive) | > 100 µM (inactive) | 34 µM (inactive) | > 100 µM (inactive) | > 100 |  | > 100 µM (inactive) |  | > 100 µM (inactive) |  | > 100 µM (inactive) | > 100 µM (inactive) | > 100 µM (inactive) | > 100 µM (inactive) | > 100 µM (inactive) | > 100 µM (inactive) |  | > 100 µM (inactive) | > 100 µM (inactive)
Cc1[nH]c2ccccc2c1C1Cc2ccccc2N1C(=O)/C=C/C=C/c1ccccc1 (centres undefined) | > 100 µM (inactive) |  | > 100 µM (inactive) | > 100 µM (inactive) | > 100 | > 100 µM (inactive) | > 100 µM (inactive) | > 100 µM (inactive) | 24.3 µM (inactive) |  | > 100 µM (inactive) | 58.2 µM (inactive) | 13.1 µM (inactive) | > 100 µM (inactive) | > 100 µM (inactive) | > 100 µM (inactive) | > 100 µM (inactive) | > 100 µM (inactive) | > 100 µM (inactive)
CCOC(=O)C1C(=O)CC(C)(O)C(C(=O)OCC)C1c1ccc(N(C)C)cc1 (centres undefined) | > 100 µM (inactive) | > 100 µM (inactive) | > 100 µM (inactive) | > 100 µM (inactive) | > 100 | > 100 µM (inactive) | > 100 µM (inactive) | > 100 µM (inactive) | > 100 µM (inactive) | > 100 µM (inactive) | > 100 µM (inactive) | > 100 µM (inactive) | > 100 µM (inactive) | > 100 µM (inactive) |  |  | > 100 µM (inactive) |  | > 100 µM (inactive)
CC(CC(=O)Nc1ccc(NC(=O)CC(C)/N=N\C(N)=O)cc1)/N=N\C(N)=O (centres undefined) | > 100 µM (inactive) |  | > 100 µM (inactive) | > 100 µM (inactive) | 16.4 | 50.9 µM (inactive) | > 100 µM (inactive) | > 100 µM (inactive) | > 100 µM (inactive) | > 100 µM (inactive) | > 100 µM (inactive) | > 100 µM (inactive) | > 100 µM (inactive) | > 100 µM (inactive) | > 100 µM (inactive) | > 100 µM (inactive) | > 100 µM (inactive) | > 100 µM (inactive) | > 100 µM (inactive)
O=C(CC1(O)C(=O)Nc2ccc(Br)cc21)c1ccc(Cl)cc1Cl (centres undefined) | 60.1 µM (inactive) |  | 25.1 µM (inactive) | 51.4 µM (inactive) | 69 | 49.8 µM (inactive) | 87.1 µM (inactive) | > 100 µM (inactive) | 36.1 µM (inactive) | 50.1 µM (inactive) | 38.3 µM (inactive) | 20.2 µM (inactive) | 34.9 µM (inactive) | > 100 µM (inactive) | 22.1 µM (inactive) | 79.1 µM (inactive) | 91.6 µM (inactive) | 45.5 µM (inactive) | 52.6 µM (inactive)
O=C(CC(=O)C1CCOC1=O)C(=O)Nc1ccc(Cl)cc1 (centres undefined) | > 100 µM (inactive) |  | > 100 µM (inactive) | > 100 µM (inactive) | > 100 | > 100 µM (inactive) | > 100 µM (inactive) | > 100 µM (inactive) | > 100 µM (inactive) | > 100 µM (inactive) | > 100 µM (inactive) | > 100 µM (inactive) | > 100 µM (inactive) | > 100 µM (inactive) | > 100 µM (inactive) | > 100 µM (inactive) | > 100 µM (inactive) | > 100 µM (inactive) | > 100 µM (inactive)
O=C1C2Nc3ccccc3SC2C(=O)N1c1cccc([N+](=O)[O-])c1 (centres undefined) | > 84.1 µM (inactive) |  | 57.3 µM (inactive) | > 100 µM (inactive) | 7.67 | 50.2 µM (inactive) | > 100 µM (inactive) | > 100 µM (inactive) | > 100 µM (inactive) | > 100 µM (inactive) | > 92.3 µM (inactive) | 86.7 µM (inactive) | > 100 µM (inactive) | > 90.2 µM (inactive) | > 100 µM (inactive) | > 100 µM (inactive) | > 100 µM (inactive) | > 100 µM (inactive) | 17 µM (inactive)
